The text below walks through data of patent US20190374557A1, “Cyclobutyl (S)-2-[[[(R)-2-(6-aminopurin-9-yl)-1-methyl-ethoxy]methyl-phenoxy-phosphoryl]amino]-propanoates, and production process and application thereof” (ALLA CHEM, LLC, priority 2017, published 2019).

Series [1] has as its system HIV strain NL4.3 carrying a gene encoding the green fluorescent protein (NL4.3-GFP). Description: microbe, parasite or virus in culture. Conditions: Human immunodeficiency virus 1, SUP-T1, 45 h, read-out: Activity (EC50).
Series [2] has the same test system. To be noted: SupT1 cells.
The nature of a further series: in vitro. To be noted: human, uninfected SupT1 cells (T-lymphocyte line).

What is called EC50 is the concentration needed to bring the measured effect to its halfway point. By CC50 is commonly meant the concentration that lowers cell viability or growth by half. As to `CC(C)OC(=O)[C@H](C)N[P@](=O)(CO[C@H](C)Cn1cnc2c(N)ncnc21)Oc1ccccc1` [TAF, tenofovir alafenamide], the EC50 in series [1] is 35 nM. In addition, the “selectivity index SI = CC50/EC50” value in series [2] is reported as 2857. Besides, in “in vitro”, the cytotoxic concentration (CC50) was over 100000 nM.
